From patent US9051579B2, “Herbicide-tolerant plants through bypassing metabolic pathway” (Bayer S.A.S., priority 2000, dated 2015)

Key:
[1] = system: Arabidopsis seeds; assay: Germination of Arabidopsis seeds on MS medium with DKN, with or without homogentisate; type: in vivo
Description: 1 Murashige and Skoog medium (T. Murashige and F. Skoog, 1962. A revised medium for a rapid growth and bioassays with tobacco tissue culture. Physiol. Plant. 15, 473-479), control experiment for germination
2 MS medium plus DKN at a dose of 1 ppm
3 MS medium plus DKN at the same dose+homogentisate at a concentration of 5 mM.

[2] = system: HPP oxidase (HPPO); assay: HPP oxidase activity assay (colorimetric / HPLC), influence of added compounds; type: biochemical, Arthrobacter globiformis; conditions: 115 ppm
Description: The enzyme reaction is stopped by adding 2,4-dinitrophenylhydrazine (2,4-DNPH), in solution in 2 M HCl. The 2, 4-DNPH reacts with the ketone function in the alpha position of a carboxylic function (example: HPP). […] When the HPP is completely converted to 4-HPA during the enzyme reaction, the hydrazone cannot form, and the characteristic yellow color of 2,4-DHPA is therefore obtained in basic medium. If the HPP is not completely converted to 4-HPA during the enzyme reaction, the formation of hydrazone is possible. These hydrazones are brown in color in basic medium. A variation in color between these two extremes is obtained as a function of the amount of HPP consumed. The absorption measurements are carried out at 445 or 450 nm. In order to make this assay more easy to handle, we adapted it to the 96-well microplate format. The reaction mixture comprises GSH (900 μM); HPP (135 μM); TPP (1.8 mM); MgCl2 (4.5 mM); FAD (4 μM); potassium phosphate buffer (90 mM) pH 7.4. The mixture is kept on ice. 50 μL of the test fraction and 150 μL of reaction mixture are placed in each well. After 20 min at 30° C., the enzyme reaction is stopped with 13 μL of 2,4-DNPH solution (0.1% in 2 M HCl). The mixture is left to react for 20 min at ambient temperature. […] To prepare the standard range, reaction mixtures with varying concentrations of HPP are prepared. […]

[3] = medium 2: MS medium plus DKN at 1 ppm

Structure (SMILES) | germination and pigmentation of the plantlet [1, 3] | survival of the plantlets [1, 3] | germination and pigmentation of the plantlet ([1]; medium 3: MS medium plus DKN 1 ppm + homogentisate 5 mM) | later development of the plants ([1]; medium 3: MS medium plus DKN 1 ppm + homogentisate 5 mM, as homogentisate in the medium decreases) | inhibition of the HPPO [2]
CS(=O)(=O)c1cc(C(F)(F)F)ccc1C(=O)C(C#N)C(=O)C1CC1 (centres unmarked) [DKN] | germination occurs, but the plantlet which emerges is white, the two cotyledons exhibiting no pigmentation | die in a few days | germination occurs normally, the cotyledons are clearly green | the first symptoms of bleaching appear and plant growth stops, they end up dying | –
CC(C)C1(C)N=C(c2ncccc2C(=O)O)NC1=O (centres unmarked) [imazapyr] | – | – | – | – | not inhibited
